Experiments:
[1] = target: T1, C-X-C chemokine receptor type 2 (Homo sapiens, UniProt P25025); assay type: cell membranes, Membrane; settings: cho-k1; further: in other assays of this panel Not Active means under 50% inhibition at 10 µM
T1 sequence (P25025 whole entry): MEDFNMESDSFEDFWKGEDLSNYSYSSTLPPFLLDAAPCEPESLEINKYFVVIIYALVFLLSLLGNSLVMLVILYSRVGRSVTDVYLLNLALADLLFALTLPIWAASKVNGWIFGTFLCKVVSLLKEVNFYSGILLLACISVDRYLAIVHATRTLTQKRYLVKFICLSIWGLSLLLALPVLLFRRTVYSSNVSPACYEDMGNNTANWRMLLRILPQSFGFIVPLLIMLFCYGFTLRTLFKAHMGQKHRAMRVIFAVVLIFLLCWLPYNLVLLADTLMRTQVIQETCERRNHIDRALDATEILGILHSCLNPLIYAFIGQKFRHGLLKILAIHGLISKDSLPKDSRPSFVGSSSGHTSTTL

D(1A) dopamine receptor = D(1A) dopamine receptor (Homo sapiens, UniProt P21728); assay: DRUGMATRIX: Dopamine D1 radioligand binding (ligand: [3H] SCH-23390); assay type: cell membranes, Membrane; settings: cho; Not Active = under 50% inhibition at 10 µM
Chain of D(1A) dopamine receptor (P21728 whole entry): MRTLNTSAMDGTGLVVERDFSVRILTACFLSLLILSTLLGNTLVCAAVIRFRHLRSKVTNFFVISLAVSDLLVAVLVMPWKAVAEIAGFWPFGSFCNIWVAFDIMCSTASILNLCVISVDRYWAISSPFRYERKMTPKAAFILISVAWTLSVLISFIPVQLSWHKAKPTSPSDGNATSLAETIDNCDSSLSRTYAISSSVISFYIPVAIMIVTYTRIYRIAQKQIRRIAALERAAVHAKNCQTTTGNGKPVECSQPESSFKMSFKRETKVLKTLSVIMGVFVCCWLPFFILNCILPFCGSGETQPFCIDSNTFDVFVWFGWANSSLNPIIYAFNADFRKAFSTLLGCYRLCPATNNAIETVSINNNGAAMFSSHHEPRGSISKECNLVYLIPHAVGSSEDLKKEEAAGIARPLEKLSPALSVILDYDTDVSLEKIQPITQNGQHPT

[2] = target: Tyrosine-protein kinase Lck (Homo sapiens, UniProt P06239); assay: DRUGMATRIX: Protein Tyrosine Kinase, LCK enzyme inhibition (substrate: Poly(Glu:Tyr)); assay type: cell-based, Insect cells; settings: insect cells; Not Active = under 50% inhibition at 10 µM
Chain of Tyrosine-protein kinase Lck (P06239 whole entry): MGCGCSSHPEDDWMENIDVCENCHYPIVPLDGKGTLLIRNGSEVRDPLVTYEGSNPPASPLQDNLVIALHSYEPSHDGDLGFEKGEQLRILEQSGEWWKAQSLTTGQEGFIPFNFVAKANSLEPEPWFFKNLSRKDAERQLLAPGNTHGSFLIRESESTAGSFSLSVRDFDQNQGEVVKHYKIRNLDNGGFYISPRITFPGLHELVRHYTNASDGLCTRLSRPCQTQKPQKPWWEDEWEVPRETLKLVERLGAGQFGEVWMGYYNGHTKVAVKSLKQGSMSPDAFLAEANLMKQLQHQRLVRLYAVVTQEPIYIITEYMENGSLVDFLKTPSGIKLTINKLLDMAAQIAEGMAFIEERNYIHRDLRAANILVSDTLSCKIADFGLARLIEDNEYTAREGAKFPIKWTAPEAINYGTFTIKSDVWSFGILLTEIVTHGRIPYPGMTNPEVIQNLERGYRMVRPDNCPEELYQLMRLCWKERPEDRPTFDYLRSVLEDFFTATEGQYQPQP

Acetylcholinesterase = Acetylcholinesterase (Homo sapiens, UniProt P22303); assay: DRUGMATRIX: Acetylcholinesterase enzyme inhibition (substrate: acetylthiocholine); assay type: cell-based, HEK293; settings: hek293; Not Active = under 50% inhibition at 10 µM
Chain of Acetylcholinesterase (P22303 whole entry): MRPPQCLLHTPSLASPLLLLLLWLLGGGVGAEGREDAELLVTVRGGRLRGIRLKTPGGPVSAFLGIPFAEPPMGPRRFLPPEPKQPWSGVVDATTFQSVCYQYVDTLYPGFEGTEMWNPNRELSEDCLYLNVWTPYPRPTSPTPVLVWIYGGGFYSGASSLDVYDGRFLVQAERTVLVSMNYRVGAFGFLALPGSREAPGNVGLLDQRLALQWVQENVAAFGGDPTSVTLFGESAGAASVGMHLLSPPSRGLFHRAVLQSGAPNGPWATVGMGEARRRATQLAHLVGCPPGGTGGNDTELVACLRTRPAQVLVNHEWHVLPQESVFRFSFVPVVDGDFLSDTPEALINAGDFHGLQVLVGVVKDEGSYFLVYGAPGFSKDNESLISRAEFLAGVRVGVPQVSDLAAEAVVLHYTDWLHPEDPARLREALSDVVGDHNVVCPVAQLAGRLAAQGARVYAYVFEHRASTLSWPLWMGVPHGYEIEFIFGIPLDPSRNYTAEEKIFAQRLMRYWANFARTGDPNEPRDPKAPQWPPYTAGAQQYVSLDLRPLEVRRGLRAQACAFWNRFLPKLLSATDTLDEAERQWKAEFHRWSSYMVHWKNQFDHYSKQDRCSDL

[3] = target: Beta-1 adrenergic receptor (Homo sapiens, UniProt P08588); assay: DRUGMATRIX: Adrenergic beta1 radioligand binding (ligand: [125I] Cyanopindolol); assay type: cell membranes, CHO-K1, Membrane; settings: cho-k1; Not Active = under 50% inhibition at 10 µM
Chain of Beta-1 adrenergic receptor (P08588 whole entry): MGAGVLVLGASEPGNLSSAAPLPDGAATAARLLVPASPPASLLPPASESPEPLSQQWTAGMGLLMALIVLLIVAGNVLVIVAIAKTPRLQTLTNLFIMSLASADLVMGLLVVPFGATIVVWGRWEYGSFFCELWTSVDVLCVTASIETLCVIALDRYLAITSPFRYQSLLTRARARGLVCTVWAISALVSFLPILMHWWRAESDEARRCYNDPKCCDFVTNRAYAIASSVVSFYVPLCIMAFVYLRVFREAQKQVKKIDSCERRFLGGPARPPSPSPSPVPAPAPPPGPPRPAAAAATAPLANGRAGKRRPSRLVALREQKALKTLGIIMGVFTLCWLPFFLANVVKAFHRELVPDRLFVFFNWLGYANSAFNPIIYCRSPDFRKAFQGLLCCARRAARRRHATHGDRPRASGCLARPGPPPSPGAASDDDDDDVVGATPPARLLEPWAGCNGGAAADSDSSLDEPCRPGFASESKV

Cathepsin G = target: T2, Cathepsin G (Homo sapiens, UniProt P08311); assay type: tissue-based; settings: neutrophil;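 further: inhibition of Cathepsin G enzyme activity, tested on an AMC-conjugated peptide substrate; in other assays of this panel Not Active means under 50% inhibition at 10 µM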
T2 sequence (P08311 whole entry): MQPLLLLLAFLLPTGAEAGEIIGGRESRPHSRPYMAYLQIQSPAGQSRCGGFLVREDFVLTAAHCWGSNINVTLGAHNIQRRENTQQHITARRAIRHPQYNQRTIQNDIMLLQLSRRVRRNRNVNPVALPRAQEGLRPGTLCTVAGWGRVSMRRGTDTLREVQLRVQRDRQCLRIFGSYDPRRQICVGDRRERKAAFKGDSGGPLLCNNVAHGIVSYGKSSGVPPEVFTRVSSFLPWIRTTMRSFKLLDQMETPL

[4] = target: Mitogen-activated protein kinase 14 (Homo sapiens, UniProt Q16539); parameters: species or system Escherichia coli;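 further: inhibition of p38alpha enzyme activity in a biochemical kinase assay, with myelin basic protein serving as substrate; in other assays of this panel Not Active means under 50% inhibition at 10 µM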
Chain of Mitogen-activated protein kinase 14 (Q16539 whole entry): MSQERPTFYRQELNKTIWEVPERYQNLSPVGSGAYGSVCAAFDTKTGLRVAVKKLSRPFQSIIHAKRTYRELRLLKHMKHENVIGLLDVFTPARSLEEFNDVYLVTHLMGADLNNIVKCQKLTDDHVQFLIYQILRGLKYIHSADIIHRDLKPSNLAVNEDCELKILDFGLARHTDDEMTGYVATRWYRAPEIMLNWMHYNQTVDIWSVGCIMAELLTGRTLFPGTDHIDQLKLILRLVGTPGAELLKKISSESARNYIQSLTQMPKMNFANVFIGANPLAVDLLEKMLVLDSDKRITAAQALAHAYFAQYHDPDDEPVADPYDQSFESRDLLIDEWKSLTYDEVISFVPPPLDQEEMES

Measured: IC50

CCOC(=O)[C@H](CCc1ccccc1)N[C@H]1CCc2ccccc2N(CC(=O)O)C1=O [BENAZEPRIL]
Not Active: [1] | D(1A) dopamine receptor | [2] | Acetylcholinesterase | [3] | Cathepsin G | [4]

CCOC(=O)C(C)(C)Oc1ccc(Cl)cc1 [CLOFIBRATE]
Not Active: [1] | D(1A) dopamine receptor | [2] | Acetylcholinesterase | [3] | Cathepsin G | [4]

CC(=O)Nc1c(I)c(NC(C)=O)c(I)c(C(=O)O)c1I [DIATRIZOIC ACID]
Not Active: [1] | D(1A) dopamine receptor | [2] | Acetylcholinesterase | [3] | Cathepsin G | [4]

CCOC(=O)C1=C(C)NC(C)=C(C(=O)OC)C1c1cccc([N+](=O)[O-])c1 (stereo unspecified) [NITRENDIPINE]
Not Active: [1] | D(1A) dopamine receptor | [2] | Acetylcholinesterase | [3] | Cathepsin G | [4]

O=C1CC[C@H](N2C(=O)c3ccccc3C2=O)C(=O)N1
Not Active: [1] | D(1A) dopamine receptor | [2] | Acetylcholinesterase | [3] | Cathepsin G | [4]

C/C=C/C[C@@H](C)[C@@H](O)[C@H]1C(=O)N[C@@H](CC)C(=O)N(C)CC(=O)N(C)[C@@H](CC(C)C)C(=O)N[C@@H](C(C)C)C(=O)N(C)[C@@H](CC(C)C)C(=O)N[C@@H](C)C(=O)N[C@H](C)C(=O)N(C)[C@@H](CC(C)C)C(=O)N(C)[C@@H](CC(C)C)C(=O)N(C)[C@@H](C(C)C)C(=O)N1C [CYCLOSPORINE]
Not Active: [1] | D(1A) dopamine receptor | [2] | Acetylcholinesterase | [3] | Cathepsin G | [4]

CC(C)Cc1ccc(C(C)C(=O)O)cc1 (stereo unspecified) [IBUPROFEN]
Not Active: [1] | D(1A) dopamine receptor | [2] | Acetylcholinesterase | [3] | Cathepsin G | [4]

CCCCN1CCCCC1C(=O)Nc1c(C)cccc1C.Cl (stereo unspecified) [BUPIVACAINE HYDROCHLORIDE]
Not Active: [1] | D(1A) dopamine receptor | [2] | Acetylcholinesterase | [3] | Cathepsin G | [4]

From ChEMBL document CHEMBL1909046, “DrugMatrix in vitro pharmacology data”
